Like-named read-outs stand apart in the source and are kept apart here.
Legend:
Test in all cases: KINOMEscan assay (Eurofins DiscoverX)
Assay type in all cases: binding
kinome (kinase panel) [1] = target: T1, kinome (kinase panel) (Homo sapiens, UniProt O75116); details: ROCK2; 1000 nM; read-out: Percent Control
T1 construct: purchased Eurofins DiscoverX

kinome (kinase panel) [2] = target: T2, kinome (kinase panel) (Homo sapiens, UniProt O75385); details: ULK1; 1000 nM; read-out: Percent Control
T2 construct: purchased Eurofins DiscoverX

kinome (kinase panel) [3] = target: T3, kinome (kinase panel) (Homo sapiens, UniProt P09619); details: PDGFRB; 1000 nM; read-out: Percent Control
T3 construct: purchased Eurofins DiscoverX

kinome (kinase panel) [4] = target: T4, kinome (kinase panel) (Homo sapiens, UniProt P22607, G697C); details: read-out: Percent Control
T4 construct: purchased Eurofins DiscoverX

kinome (kinase panel) [5] = target: T5, kinome (kinase panel) (Homo sapiens, UniProt P29323); details: EPHB2; 1000 nM; read-out: Percent Control
T5 construct: purchased Eurofins DiscoverX

kinome (kinase panel) [6] = target: T6, kinome (kinase panel) (Homo sapiens, UniProt P29597); details: 1000 nM, read-out: Percent Control
T6 construct: purchased Eurofins DiscoverX
T6 sequence (P29597 whole entry): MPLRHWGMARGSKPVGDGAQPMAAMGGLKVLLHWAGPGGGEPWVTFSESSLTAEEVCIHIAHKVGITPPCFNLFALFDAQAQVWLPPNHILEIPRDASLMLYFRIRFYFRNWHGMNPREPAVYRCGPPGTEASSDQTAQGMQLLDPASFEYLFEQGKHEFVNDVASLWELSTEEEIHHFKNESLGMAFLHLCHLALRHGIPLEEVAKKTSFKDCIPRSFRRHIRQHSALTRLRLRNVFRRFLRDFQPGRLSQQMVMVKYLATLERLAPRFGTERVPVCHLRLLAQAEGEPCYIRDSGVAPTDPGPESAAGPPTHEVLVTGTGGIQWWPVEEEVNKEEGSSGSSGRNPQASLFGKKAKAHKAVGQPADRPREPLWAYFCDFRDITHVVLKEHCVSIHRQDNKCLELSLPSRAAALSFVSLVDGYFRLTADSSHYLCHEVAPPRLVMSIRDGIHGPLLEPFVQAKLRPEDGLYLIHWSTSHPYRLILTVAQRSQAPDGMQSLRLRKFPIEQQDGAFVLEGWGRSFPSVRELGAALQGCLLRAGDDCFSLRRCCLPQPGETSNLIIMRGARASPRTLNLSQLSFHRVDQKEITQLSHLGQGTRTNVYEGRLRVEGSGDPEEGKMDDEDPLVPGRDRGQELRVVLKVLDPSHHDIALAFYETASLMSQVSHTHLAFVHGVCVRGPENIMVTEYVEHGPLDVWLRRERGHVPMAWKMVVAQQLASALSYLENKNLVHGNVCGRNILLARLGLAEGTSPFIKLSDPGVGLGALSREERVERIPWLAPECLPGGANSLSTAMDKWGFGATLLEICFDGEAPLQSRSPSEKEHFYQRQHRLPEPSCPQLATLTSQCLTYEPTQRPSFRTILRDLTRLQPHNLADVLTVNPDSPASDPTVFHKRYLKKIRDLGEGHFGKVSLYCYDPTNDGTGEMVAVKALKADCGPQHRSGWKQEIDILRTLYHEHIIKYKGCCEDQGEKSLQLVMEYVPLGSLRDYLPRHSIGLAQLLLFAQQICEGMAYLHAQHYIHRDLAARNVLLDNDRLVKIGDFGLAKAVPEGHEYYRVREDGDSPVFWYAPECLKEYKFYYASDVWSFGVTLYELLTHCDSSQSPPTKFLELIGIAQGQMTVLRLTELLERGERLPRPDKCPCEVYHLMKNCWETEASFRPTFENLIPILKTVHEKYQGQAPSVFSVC

kinome (kinase panel) [7] = target: T7, kinome (kinase panel) (Homo sapiens, UniProt P35968); details: VEGFR2 (KDR); 1000 nM; read-out: Percent Control
T7 construct: purchased Eurofins DiscoverX

kinome (kinase panel) [8] = target: T8, kinome (kinase panel) (Homo sapiens, UniProt P42336, H1047L); details: read-out: Percent Control
T8 construct: purchased Eurofins DiscoverX
T8 sequence (P42336 whole entry H1047L): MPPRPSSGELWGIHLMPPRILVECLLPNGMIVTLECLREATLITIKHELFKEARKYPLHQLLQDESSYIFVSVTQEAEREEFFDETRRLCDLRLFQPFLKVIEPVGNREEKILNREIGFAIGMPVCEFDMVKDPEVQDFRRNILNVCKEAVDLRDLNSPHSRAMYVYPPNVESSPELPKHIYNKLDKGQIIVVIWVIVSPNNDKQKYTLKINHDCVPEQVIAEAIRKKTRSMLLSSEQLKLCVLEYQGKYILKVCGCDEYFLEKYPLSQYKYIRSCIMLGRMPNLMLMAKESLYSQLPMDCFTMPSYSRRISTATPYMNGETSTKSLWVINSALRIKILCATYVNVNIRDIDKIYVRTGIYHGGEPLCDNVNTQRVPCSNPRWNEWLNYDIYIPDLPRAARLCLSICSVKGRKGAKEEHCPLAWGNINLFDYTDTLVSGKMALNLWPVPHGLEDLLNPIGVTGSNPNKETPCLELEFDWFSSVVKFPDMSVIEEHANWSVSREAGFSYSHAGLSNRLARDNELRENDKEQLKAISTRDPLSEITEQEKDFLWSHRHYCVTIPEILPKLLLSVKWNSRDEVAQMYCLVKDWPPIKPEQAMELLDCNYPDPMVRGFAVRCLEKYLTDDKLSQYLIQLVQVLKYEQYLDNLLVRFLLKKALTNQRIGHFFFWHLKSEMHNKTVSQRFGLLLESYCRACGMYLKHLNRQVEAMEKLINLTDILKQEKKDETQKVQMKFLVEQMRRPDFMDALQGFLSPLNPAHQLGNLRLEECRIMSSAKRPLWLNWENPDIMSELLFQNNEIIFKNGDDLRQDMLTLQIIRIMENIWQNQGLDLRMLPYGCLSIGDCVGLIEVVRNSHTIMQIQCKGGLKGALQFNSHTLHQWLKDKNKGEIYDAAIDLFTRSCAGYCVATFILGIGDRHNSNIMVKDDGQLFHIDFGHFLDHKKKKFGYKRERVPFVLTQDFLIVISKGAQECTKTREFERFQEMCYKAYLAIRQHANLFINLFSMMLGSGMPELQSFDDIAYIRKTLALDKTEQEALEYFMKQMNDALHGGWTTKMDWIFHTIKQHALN

kinome (kinase panel) [9] = target: T9, kinome (kinase panel) (Homo sapiens, UniProt P42336, Q546K); details: read-out: Percent Control
T9 construct: purchased Eurofins DiscoverX
T9 sequence (P42336 whole entry Q546K): as the sequence (P42336 whole entry H1047L) above, with Q546K, L1047H counted along it

kinome (kinase panel) [10] = target: T10, kinome (kinase panel) (Homo sapiens, UniProt P45983); details: JNK1 (Entrez MAPK8); 1000 nM; read-out: Percent Control
T10 construct: purchased Eurofins DiscoverX

kinome (kinase panel) [11] = target: T11, kinome (kinase panel) (Homo sapiens, UniProt P49761); details: CLK3; 1000 nM; read-out: Percent Control
T11 construct: purchased Eurofins DiscoverX

kinome (kinase panel) [12] = target: T12, kinome (kinase panel) (Homo sapiens, UniProt P53350); details: PLK1; 1000 nM; read-out: Percent Control
T12 construct: purchased Eurofins DiscoverX

kinome (kinase panel) [13] = target: T13, kinome (kinase panel) (Homo sapiens, UniProt P54764); details: EPHA4; 1000 nM; read-out: Percent Control
T13 construct: purchased Eurofins DiscoverX

kinome (kinase panel) [14] = target: T14, kinome (kinase panel) (Homo sapiens, UniProt P57059); details: SIK (SIK1); 1000 nM; read-out: Percent Control
T14 construct: purchased Eurofins DiscoverX

kinome (kinase panel) [15] = target: T15, kinome (kinase panel) (Homo sapiens, UniProt Q00526); details: CDK3; 1000 nM; read-out: Percent Control
T15 construct: purchased Eurofins DiscoverX

kinome (kinase panel) [16] = target: T16, kinome (kinase panel) (Homo sapiens, UniProt Q02763); details: TIE2 (TEK); 1000 nM; read-out: Percent Control
T16 construct: purchased Eurofins DiscoverX

kinome (kinase panel) [17] = target: T17, kinome (kinase panel) (Homo sapiens, UniProt Q04912); details: MST1R; 1000 nM; read-out: Percent Control
T17 construct: purchased Eurofins DiscoverX

kinome (kinase panel) [18] = target: T18, kinome (kinase panel) (Homo sapiens, UniProt Q15208); details: NDR1 (Entrez STK38); 1000 nM; read-out: Percent Control
T18 construct: purchased Eurofins DiscoverX

kinome (kinase panel) [19] = target: T19, kinome (kinase panel) (Homo sapiens, UniProt Q15349); details: 1000 nM, read-out: Percent Control
T19 construct: purchased Eurofins DiscoverX
T19 sequence (Q15349 whole entry): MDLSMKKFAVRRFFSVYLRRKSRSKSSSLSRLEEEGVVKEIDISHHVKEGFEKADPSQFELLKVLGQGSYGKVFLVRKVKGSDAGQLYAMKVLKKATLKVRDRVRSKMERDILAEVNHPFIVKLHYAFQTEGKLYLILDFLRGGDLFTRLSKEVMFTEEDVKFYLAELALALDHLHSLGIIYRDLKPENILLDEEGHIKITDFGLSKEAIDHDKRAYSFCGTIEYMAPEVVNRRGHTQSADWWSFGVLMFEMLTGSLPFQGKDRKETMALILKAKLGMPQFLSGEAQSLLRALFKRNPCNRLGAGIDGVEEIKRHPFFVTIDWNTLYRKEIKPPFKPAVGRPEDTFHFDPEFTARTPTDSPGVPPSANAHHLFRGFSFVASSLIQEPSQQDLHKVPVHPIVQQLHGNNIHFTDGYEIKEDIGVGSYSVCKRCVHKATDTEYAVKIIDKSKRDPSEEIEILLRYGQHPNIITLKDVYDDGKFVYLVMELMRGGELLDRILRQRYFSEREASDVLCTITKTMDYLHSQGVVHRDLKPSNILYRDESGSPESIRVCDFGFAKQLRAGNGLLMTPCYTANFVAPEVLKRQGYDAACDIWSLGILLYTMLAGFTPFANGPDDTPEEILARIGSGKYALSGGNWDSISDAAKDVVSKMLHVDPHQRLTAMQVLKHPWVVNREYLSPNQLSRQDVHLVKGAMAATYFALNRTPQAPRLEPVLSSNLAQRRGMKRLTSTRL

kinome (kinase panel) [20] = target: T20, kinome (kinase panel) (Homo sapiens, UniProt Q2M2I8); details: AAK1; 1000 nM; read-out: Percent Control
T20 construct: purchased Eurofins DiscoverX

kinome (kinase panel) [21] = target: T21, kinome (kinase panel) (Homo sapiens, UniProt Q8NEB9); details: VPS34 (PIK3C3); 1000 nM; read-out: Percent Control
T21 construct: purchased Eurofins DiscoverX

kinome (kinase panel) [22] = target: T22, kinome (kinase panel) (Homo sapiens, UniProt Q92772); details: CDKL2; 1000 nM; read-out: Percent Control
T22 construct: purchased Eurofins DiscoverX

kinome (kinase panel) [23] = target: T23, kinome (kinase panel) (Homo sapiens, UniProt Q96D53); details: ADCK4; 1000 nM; read-out: Percent Control
T23 construct: purchased Eurofins DiscoverX

kinome (kinase panel) [24] = target: T24, kinome (kinase panel) (Homo sapiens, UniProt Q9NWZ3); details: IRAK4; 1000 nM; read-out: Percent Control
T24 construct: purchased Eurofins DiscoverX

kinome (kinase panel) [25] = target: T25, kinome (kinase panel) (Homo sapiens, UniProt Q9NY57); details: YANK2 (STK32B); 1000 nM; read-out: Percent Control
T25 construct: purchased Eurofins DiscoverX
T25 sequence (Q9NY57 whole entry): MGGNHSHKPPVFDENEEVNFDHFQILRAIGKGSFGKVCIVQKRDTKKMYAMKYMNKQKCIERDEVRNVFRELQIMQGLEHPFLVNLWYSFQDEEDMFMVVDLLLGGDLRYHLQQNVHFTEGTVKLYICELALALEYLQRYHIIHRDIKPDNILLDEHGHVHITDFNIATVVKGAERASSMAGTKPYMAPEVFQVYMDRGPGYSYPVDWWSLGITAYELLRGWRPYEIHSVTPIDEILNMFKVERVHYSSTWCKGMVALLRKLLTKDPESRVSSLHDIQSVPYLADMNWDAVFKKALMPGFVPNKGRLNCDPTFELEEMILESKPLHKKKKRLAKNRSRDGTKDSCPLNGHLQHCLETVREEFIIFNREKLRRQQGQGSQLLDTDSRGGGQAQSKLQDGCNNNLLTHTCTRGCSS

kinome (kinase panel) [26] = target: T26, kinome (kinase panel) (Homo sapiens, UniProt Q9P286); details: PAK7; 1000 nM; read-out: Percent Control
T26 construct: purchased Eurofins DiscoverX
T26 sequence (Q9P286 whole entry): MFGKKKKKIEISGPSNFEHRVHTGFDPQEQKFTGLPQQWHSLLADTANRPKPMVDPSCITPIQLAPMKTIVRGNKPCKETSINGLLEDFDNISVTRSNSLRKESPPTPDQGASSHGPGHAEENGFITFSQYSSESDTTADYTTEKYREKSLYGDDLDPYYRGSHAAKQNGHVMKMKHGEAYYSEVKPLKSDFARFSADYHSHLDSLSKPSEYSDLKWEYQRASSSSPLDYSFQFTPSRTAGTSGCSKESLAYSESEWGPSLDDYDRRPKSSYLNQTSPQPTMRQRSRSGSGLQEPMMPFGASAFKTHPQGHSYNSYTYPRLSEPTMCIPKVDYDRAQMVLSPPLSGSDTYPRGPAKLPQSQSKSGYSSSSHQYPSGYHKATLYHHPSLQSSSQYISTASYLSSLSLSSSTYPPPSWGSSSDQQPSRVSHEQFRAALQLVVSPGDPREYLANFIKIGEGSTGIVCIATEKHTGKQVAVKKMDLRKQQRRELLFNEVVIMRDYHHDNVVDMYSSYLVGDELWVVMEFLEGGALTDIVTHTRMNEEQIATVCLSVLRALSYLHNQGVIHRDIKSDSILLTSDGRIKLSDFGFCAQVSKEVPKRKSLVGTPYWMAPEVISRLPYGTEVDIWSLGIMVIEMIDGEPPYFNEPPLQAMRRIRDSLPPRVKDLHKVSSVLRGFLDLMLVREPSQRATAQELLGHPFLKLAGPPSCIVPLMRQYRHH

kinome (kinase panel) [27] = target: T27, kinome (kinase panel) (Homo sapiens, UniProt Q9UEE5); details: DRAK1 (Entrez STK17A); 1000 nM; read-out: Percent Control
T27 construct: purchased Eurofins DiscoverX

kinome (kinase panel) [28] = target: T28, kinome (kinase panel) (Homo sapiens, UniProt Q9UK32); details: 1000 nM, read-out: Percent Control
T28 construct: purchased Eurofins DiscoverX
T28 sequence (Q9UK32 whole entry): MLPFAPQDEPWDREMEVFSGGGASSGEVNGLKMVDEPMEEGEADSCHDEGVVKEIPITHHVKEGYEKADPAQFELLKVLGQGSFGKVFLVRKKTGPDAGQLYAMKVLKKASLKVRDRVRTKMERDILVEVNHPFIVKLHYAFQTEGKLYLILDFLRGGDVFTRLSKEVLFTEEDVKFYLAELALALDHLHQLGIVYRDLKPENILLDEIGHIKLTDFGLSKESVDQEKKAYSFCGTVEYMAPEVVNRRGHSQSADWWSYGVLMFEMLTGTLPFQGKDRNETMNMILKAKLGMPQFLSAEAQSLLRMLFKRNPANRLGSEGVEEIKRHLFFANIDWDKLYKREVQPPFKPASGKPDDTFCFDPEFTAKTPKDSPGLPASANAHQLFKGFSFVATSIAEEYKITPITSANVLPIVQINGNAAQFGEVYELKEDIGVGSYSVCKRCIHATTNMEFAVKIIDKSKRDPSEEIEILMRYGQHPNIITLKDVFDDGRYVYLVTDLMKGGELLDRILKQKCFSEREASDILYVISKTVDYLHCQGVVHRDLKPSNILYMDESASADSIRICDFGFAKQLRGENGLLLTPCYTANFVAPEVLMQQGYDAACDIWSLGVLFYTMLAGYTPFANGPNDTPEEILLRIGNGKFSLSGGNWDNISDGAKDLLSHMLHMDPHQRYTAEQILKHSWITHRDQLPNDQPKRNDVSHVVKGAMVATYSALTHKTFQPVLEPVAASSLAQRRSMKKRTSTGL

kinome (kinase panel) [29] = target: T29, kinome (kinase panel) (Homo sapiens, UniProt Q9Y4K4); details: MAP4K5; 1000 nM; read-out: Percent Control
T29 construct: purchased Eurofins DiscoverX

kinome (kinase panel) [30] = target: T30, kinome (kinase panel) (Homo sapiens, UniProt Q9Y6M4); details: CSNK1G3; 1000 nM; read-out: Percent Control
T30 construct: purchased Eurofins DiscoverX

kinome (kinase panel) [31] = target: T31, kinome (kinase panel) (Mycobacterium tuberculosis, UniProt P9WI81); details: PKNB(M.tuberculosis) (Entrez pknB); 1000 nM; read-out: Percent Control
T31 construct: purchased Eurofins DiscoverX

What does the source list for `CN(C)C(=O)c1cc2cnc(Nc3ccc(-c4csc5c(=O)cc(N6CCOCC6)oc45)cc3)nc2n1C1CCCC1` [SRX3177]?
remaining binding at 1 µM (kinome (kinase panel) [1]): 46%; remaining binding at 1 µM (kinome (kinase panel) [2]): 90%; remaining binding at 1 µM (kinome (kinase panel) [3]): 44%; remaining binding at 1 µM (kinome (kinase panel) [4]): 89%; remaining binding at 1 µM (kinome (kinase panel) [5]): 97%; remaining binding at 1 µM (kinome (kinase panel) [6]; TYK2(JH1domain-catalytic)): 69%; remaining binding at 1 µM (kinome (kinase panel) [6]; TYK2(JH2domain-pseudokinase)): 9.7%; remaining binding at 1 µM (kinome (kinase panel) [7]): 87%; remaining binding at 1 µM (kinome (kinase panel) [8]): 41%; remaining binding at 1 µM (kinome (kinase panel) [9]): 41%; remaining binding at 1 µM (kinome (kinase panel) [10]): 62%; remaining binding at 1 µM (kinome (kinase panel) [11]): 79%; remaining binding at 1 µM (kinome (kinase panel) [12]): 75%; remaining binding at 1 µM (kinome (kinase panel) [13]): 98%; remaining binding at 1 µM (kinome (kinase panel) [14]): 94%; remaining binding at 1 µM (kinome (kinase panel) [15]): 69%; remaining binding at 1 µM (kinome (kinase panel) [16]): 100%; remaining binding at 1 µM (kinome (kinase panel) [17]): 77%; remaining binding at 1 µM (kinome (kinase panel) [18]): 99%; remaining binding at 1 µM (kinome (kinase panel) [19]; RSK3(Kin.Dom.1-N-terminal) (RPS6KA2)): 80%; remaining binding at 1 µM (kinome (kinase panel) [19]; RSK3(Kin.Dom.2-C-terminal) (RPS6KA2)): 74%; remaining binding at 1 µM (kinome (kinase panel) [20]): 49%; remaining binding at 1 µM (kinome (kinase panel) [21]): 46%; remaining binding at 1 µM (kinome (kinase panel) [22]): 97%; remaining binding at 1 µM (kinome (kinase panel) [23]): 43%; remaining binding at 1 µM (kinome (kinase panel) [24]): 45%; remaining binding at 1 µM (kinome (kinase panel) [25]): 100%; remaining binding at 1 µM (kinome (kinase panel) [26]): 89%; remaining binding at 1 µM (kinome (kinase panel) [27]): 100%; remaining binding at 1 µM (kinome (kinase panel) [28]; RSK4(Kin.Dom.1-N-terminal) (RPS6KA6)): 90%; remaining binding at 1 µM (kinome (kinase panel) [28]; RSK4(Kin.Dom.2-C-terminal) (RPS6KA6)): 90%; remaining binding at 1 µM (kinome (kinase panel) [29]): 100%; remaining binding at 1 µM (kinome (kinase panel) [30]): 100%; remaining binding at 1 µM (kinome (kinase panel) [31]): 40%
